No end group written: not given here.
Legend:
[1] = target: T1, S100P (Homo sapiens, UniProt P25815); assay: Isothermal titration calorimetry (ITC) of tubulin peptides with S100P; assay type: binding; conditions: for affinity for S100P (in words): NMR and ITC
T1 construct: made in house
T1 sequence (P25815 1-95): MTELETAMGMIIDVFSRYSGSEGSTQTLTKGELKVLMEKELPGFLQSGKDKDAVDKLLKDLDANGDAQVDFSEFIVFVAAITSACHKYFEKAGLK
Procedure: Measurements were conducted using an ITC-200 instrument (Microcal) as previously described. ITC titrations were performed in 20 mM MES pH 6.1, 50 mM NaCl, 1.0 mM TCEP and 5 mM CaCl2 (for Ca^2+-form of S100P) at 25°C. Due to low solubility, peptide solutions at concentrations of 10–400 µM were placed in the cell and titrated with S100P at concentrations of 0.5–3 mM, depending on the peptide concentration. Data were integrated and fitted to a single site binding equation using Origin 7 software which was included with the ITC module (Malvern Microcal, Malvern, U.K.).

[2] = test system: tubulin polymerisation in COS-7 S10 cells; assay: In vivo tubulin polymerisation assay, COS-7 / COS-7 S10; assay type: cell-based, monkey; conditions: parental COS-7, 1 µg/ml doxycycline
Procedure: (§1) HeLa and S100P-inducible HeLa, COS-7 and S100P-inducible COS-7 cells were routinely cultured with or without doxycycline (1 µg/ml) and treated with 33 µM nocodazole for 24 h to synchronise the cells. Then the nocodazole was washed away (First release) and the synchronised cells were cultured in normal medium for 4 h to allow them to complete cell division. The nocodazole was then added again for 4 h to dissociate all the MTs. After this time, nocodazole was again removed by extensive washings (Second release) and tubulin was allowed to polymerise in the interphase of the cell cycle for different times. The cells were treated with buffer (10 mM Tris–HCl, 150 mM KCl, pH 7.4, 2% (v/v) Triton X-100) and the Triton-X100-insoluble tubulins (representing the newly formed MTs) were solubilised in Sample Buffer and quantified by Western blotting. To test the effect of tubulin-derived peptides, 20 µM T-DIC, T-DLV, T-IMN and tag-peptide alone (Supplementary Table S3) in 0.25% (v/v) DMSO as solvent, as well as the solvent control 0.25% (v/v) DMSO were added immediately after the second release in Sample Buffer and quantified at the different time points by Western blotting.

[3] = test system: tubulin polymerisation in HeLa-A19 cells; assay: In vivo tubulin polymerisation assay, HeLa / HeLa-A19; assay type: cell-based, human; conditions: parental HeLa, 1 µg/ml doxycycline
Procedure: as §1

[4] = test system: S100P - α,β-tubulin; assay: SPR inhibition of S100P binding to α,β-tubulin-coated chip by peptides; design: species or system human; conditions: 20 µM peptide, 1 µM S100P
Procedure: For SPR binding assays, α,β-tubulin proteins described earlier were immobilised on a carboxymethylated dextran surface of a CM5 chip using BS^3 for use in Biocore X100. Recombinant S100P produced as described previously was used as a ligand in different concentrations at 20, 50, 100, 200, 1000, 2000 nM for calculation of the equilibrium dissociation constant (Kd) from the association/dissociation rate constants and from the extent of binding near equilibrium (Supplementary Table S2), as described previously. To detect the effects of tubulin peptides on the interaction of tubulin, different concentrations of tagged and untagged peptides were mixed with 1 µM S100P first and the mixtures were then applied to the tubulin-coated chip. The relative changes in kinetics and binding extents with different peptides were calculated using software provided by the manufacturer.

[5] = cited from earlier work; for Kd: ref [58], read-out: Kd for Ca2+ in absence of protein target
Text: Cell migration is a complicated biological process involving many disparate cellular machines and regulatory systems. The cytoskeleton is essential for cell migration and is composed of three major types of fibres, intermediate filaments, actomyosin filaments and MTs. The intermediate filaments mainly provide mechanical strength to cells, whilst actomyosin filaments directly provide forces for cell migration. The roles of MTs in cell migration are more complex. On the one hand, MTs are a major support to cell polarity and their assembly can provide force for directional mo ...

[6] = test system: tubulin; conditions: cited from earlier work; for interaction with tubulin: ref [24]; for effect on MT assembly: ref [25]
Text: The individual S100 proteins have been reported to interact inter alia with either NM or with tubulin, although with different binding affinities. […] Decreasing S100A1 is able to increase tubulin levels and this change alters neurite organisation in […]. […] However, it is ...

[7] = target: T2, Recombinant S100P (UniProt P25815 1-95, 15N-labelled in the NMR experiments); assay: SPR; competition: 20 µM peptide mixed with 1 µM S100P, applied to the α,β-tubulin-coated chip; extent of binding relative to S100P alone (100%)
T2 chain: T1 sequence (P25815 1-95)

[8] = test system: COS-7 S10 cells; assay: Boyden chamber cell migration, S100P-inducible COS-7; assay type: cell-based, monkey
Text: (§2) Cell migration rate (%) = M/G × 100.

[9] = test system: COS-7 cells; assay: Boyden chamber cell migration, COS-7 parental; assay type: cell-based, monkey; conditions: 5 µM colchicine, 24 h, COS-7
Text: as §2

[10] = test system: HeLa cells; assay: Boyden chamber cell migration with MT regulators, HeLa; conditions: 5 µM colchicine, 24 h
[11] = test system: HeLa-A3 cells; assay: S100P-enhanced cell migration, HeLa-A3; assay type: cell-based, human; conditions: HeLa-A3; 20 nM taxol or 5 µM colchicine, 24 h
Text: as §2

[12] = test system: Rama 37-T25 cells; assay: S100P-enhanced cell migration, Rama 37-T25; assay type: cell-based, rat; conditions: Rama 37-T25; 20 nM taxol or 5 µM colchicine, 24 h
Text: as §2

[13] = test system: MCF-7 cells; assay: Boyden chamber cell migration with MT regulators, MCF-7
[14] = test system: Rama 37 cells; assay: Boyden chamber cell migration with MT regulators, Rama 37; conditions: 5 µM colchicine, 24 h
[15] = target: αβ-tubulin (UniProt P68363); assay: SPR; αβ-tubulin immobilised on a CM5 chip, S100P in solution; 150 mM NaCl, 0.5 mM CaCl2, multiple cycles; Kd from the association and dissociation rate constants
[16] = target: αβ-tubulin (UniProt P68363); assay: SPR; αβ-tubulin immobilised on a CM5 chip (Biacore X100), S100P in solution; 150 mM NaCl, 0.5 mM CaCl2, single cycle; Kd from the association and dissociation rate constants
[17] = target: αβ-tubulin (UniProt P68363); assay: SPR; αβ-tubulin immobilised on a CM5 chip, S100P in solution; 300 mM NaCl (printed 300M), 0.5 mM CaCl2, multiple cycles; Kd from the extent of binding at or near equilibrium
[18] = target: αβ-tubulin (UniProt P68363); assay: SPR; αβ-tubulin immobilised on a CM5 chip, S100P in solution; 500 mM NaCl (printed 500M), 0.5 mM CaCl2, multiple cycles; Kd from the association and dissociation rate constants
[19] = target: αβ-tubulin (UniProt P68363); assay: SPR; αβ-tubulin immobilised on a CM5 chip, S100P in solution; 300 mM NaCl (printed 300M), 0.5 mM CaCl2, multiple cycles; Kd from the association and dissociation rate constants
[20] = target: T2, Recombinant S100P; assay: ITC

VNAAIATIKTKRTIQFVDWCPTGFKVGINY [VNA]
Kd ([1]; ITC, 25°C, 20 mM MES pH 6.1, 50 mM NaCl, 1.0 mM TCEP, 5 mM CaCl2, single site fit, peptide in cell, S100P titrated): 62000 nM
affinity for S100P (in words) [1]: relatively weak

C[C@H]1c2cccc(O)c2C(=O)C2=C(O)[C@]3(O)C(=O)C(C(N)=O)=C(O)[C@@H](N(C)C)[C@@H]3[C@@H](O)[C@@H]21 [doxycycline, reference compound]
effect of doxycycline on tubulin polymerisation, parental cells [2]: no significant differences
effect of doxycycline on tubulin polymerisation, parental cells [3]: no significant differences

IMNTFSVVPSPKVSDTVVEPYNATL-SVH
affinity for S100P (in words) [1]: very weak or nonbinder
effect on extent of binding of S100P to α,β-tubulin (in words) [4]: showed no such effect

S100B: S100 protein
Kd [5]: > 1000 nM
interaction with tubulin [6]: can interact with tubulin in a calcium-dependent manner
effect on MT assembly [6]: disrupt the assembly of MT

T-DLV, DLV peptide with the N-terminal 10 amino acid TAT-HA2 tag for cell entry
percent reduction of the extent of binding of 1 µM S100P to α,β-tubulin at 20 µM peptide [7]: 50%

RRRQRRKKRG [Tag, 10 amino acid TAT-HA2 tag for cell entry, reference compound]
effect on extent of binding of S100P to α,β-tubulin (in words) [4]: showed no effect in the binding assay
S100P-induced fold increase in migration in the presence of peptide ([8]; 20 µM tagged peptide, 8 h, doxycycline-induced COS-7 S10 vs uninduced): 3.5 fold

S100A4: S100 protein
change of Ca2+ Kd in complex with NMIIA fragments ([5]; ITC, preformed S100A4/NMIIA fragments, ref [57]): reduced by several orders of magnitude
Kd [5]: > 1000 nM

COc1cc2c(c(OC)c1OC)-c1ccc(OC)c(=O)cc1[C@@H](NC(C)=O)CC2 [colchicine]
reduction of migration by colchicine [9]: 30–70%
reduction of migration by colchicine [10]: 30–70%
effect on S100P-enhanced migration [11]: suppressed
effect on S100P-enhanced migration [12]: suppressed
effect of colchicine on migration (in words) ([13]; MCF-7, 5 µM time course, dose response 24 h): increase dramatically cell migration in a time and dose-dependent manner
concentration abolishing the enhancement of migration ([13]; MCF-7, colchicine): > 10 µM
incubation time abolishing the enhancement of migration ([13]; MCF-7, colchicine): > 24 h
concentration range enhancing migration ([13]; MCF-7, colchicine, Figure 6C): 1 to 10 µM
reduction of migration by colchicine [14]: 30–70%
effect on S100P-enhanced migration ([8]; COS-7 S10, 20 nM taxol or 5 µM colchicine, 24 h): suppressed
effect on S100P's stimulation of migration ([8]; taxol to stabilise MTs or colchicine to dissociate MTs (abstract)): abolished

T-DIC, DIC peptide with the N-terminal 10 amino acid TAT-HA2 tag for cell entry
percent reduction of the extent of binding of 1 µM S100P to α,β-tubulin at 20 µM peptide [7]: 50%

DIC peptide, the 26mer starting with DIC from β-tubulin
percent inhibition of the extent of binding of 1 µM S100P to α,β-tubulin at 20 µM peptide [7]: > 50%

B1: S100A1: S100 protein (protein, UniProt P23297 1-94, looked up)
Protein S100-A1: MGSELETAMETLINVFHAHSGKEGDKYKLSKKELKELLQTELSGFLDAQKDVDAVDKVMKELDENGDGEVDFQEYVVLVAALTVACNNFFWENS
interaction with tubulin [6]: can interact with tubulin in a calcium-dependent manner
effect on MT assembly [6]: disrupt the assembly of MT

B2: S100A9/A8: S100A9/A8 (MRP14/MRP8) complex (protein, UniProt P06702 1-114; P05109 1-93, looked up)
Protein S100-A9: MTCKMSQLERNIETIINTFHQYSVKLGHPDTLNQGEFKELVRKDLQNFLKKENKNEKVIEHIMEDLDTNADKQLSFEEFIMLMARLTWASHEKMHEGDEGPGHHHKPGLGEGTP
Protein S100-A8: MLTELEKALNSIIDVYHKYSLIKGNFHAVYRDDLKKLLETECPQYIRKKGADVWFKELDINTDGAVNFQEFLILVIKMGVAAHKKSHEESHKE
effect on tubulin polymerisation in vivo ([6]; ref [27]): promotes tubulin polymerisation in vivo

B3: S100P (natural protein)
chain: T1 sequence (P25815 1-95)
Kd [15]: 210 nM
Kd [16]: 120 nM
Kd [17]: 1100 nM
Kd [18]: 8300 nM
Kd [19]: 890 nM

B4: DLV peptide, the 30mer starting with DLV from α-tubulin (peptide)
chain: DLVLDRIRKLADQCTGLQGFLVFHSFGGGT
percent inhibition of the extent of binding of 1 µM S100P to α,β-tubulin at 20 µM peptide [7]: > 50%
Kd [20]: < 10000 nM

Source: article PMC7108782, “Direct interaction of metastasis-inducing S100P protein with tubulin causes enhanced cell migration without changes in cell adhesion” (Biochemical Journal, 2020)
